Data on three molecules can be found in US7208494B2, “5HT2c receptor agonists” (Hoffmann-La Roche Inc., priority 2003, dated 2007).

A word on the Ki: it is a measure of affinity in units of concentration, obtained from inhibition or displacement. The EC50 is the midpoint of the concentration-response curve.

The target in assay [1] is T1, 5-HT2A receptor (Homo sapiens, UniProt P28223). In words: Binding to 5-HT2A receptor, [125I]-DOI, Method (c). Further details: expressed in transfected cells; host or cells: CHO cell line. The note with it: CHO cell line, read-out: Ki (2A). As for the experimental part:
(§1) The binding of compounds of formula (I) to serotonin receptors was determined in vitro by standard methods. The preparations were investigated in accordance with the assays given hereinafter.
Method (c): For the binding to the 5-HT2A receptor the 5-HT2A receptors were radiolabeled with [^125I]-DOI. The affinity of the compounds for 5-HT2A receptors in a CHO cell line was determined according to the procedure of D. J. McKenna and S. J. Peroutka, J. Neurosci., 1989, 9, 3482–90.

In the next assay the target is T2, human 5-HT2B receptors (Homo sapiens, UniProt P41595).
T2 construct: expressed in transfected cells; host or cells: CHO cell line
T2 sequence (P41595 whole entry): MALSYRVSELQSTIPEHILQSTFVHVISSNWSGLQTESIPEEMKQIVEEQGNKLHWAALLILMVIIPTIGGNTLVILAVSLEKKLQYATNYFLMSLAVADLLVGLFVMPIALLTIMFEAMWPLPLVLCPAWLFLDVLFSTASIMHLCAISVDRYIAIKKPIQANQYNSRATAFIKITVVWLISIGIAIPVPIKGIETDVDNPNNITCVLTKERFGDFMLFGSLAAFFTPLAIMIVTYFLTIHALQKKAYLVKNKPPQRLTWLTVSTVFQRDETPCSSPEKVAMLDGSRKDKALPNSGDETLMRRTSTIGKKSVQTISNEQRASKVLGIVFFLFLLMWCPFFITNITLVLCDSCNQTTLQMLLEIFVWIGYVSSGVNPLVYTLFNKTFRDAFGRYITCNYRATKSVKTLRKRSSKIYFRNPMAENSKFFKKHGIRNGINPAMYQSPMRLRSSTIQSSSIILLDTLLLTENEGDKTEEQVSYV
In words: Binding to 5-HT2B receptor, [3H]-5-HT, Method (b). The note with it: human 5-HT2B in CHO cell line, read-out: Ki (2B). As for the experimental part:
as §1
Method (b): For the binding to the 5-HT2B receptor the 5-HT2B receptors were radiolabeled with [^3H]-5-HT. The affinity of the compounds for human 5-HT2B receptors in a CHO cell line was determined according to the procedure of K. Schmuck, C. Ullmer, P. Engels and H. Lubbert, FEBS Lett., 1994, 342, 85–90.

The target of assay [2] is T1, 5-HT2A receptor. Briefly: Functional activity, FLIPR calcium assay, h5-HT2A. The class given is cell-based. Set-up: expressed in transfected cells; host or cells: CHO cells. The note with it: for EC50: CHO cells expressing human 5-HT2A, FLIPR; for h5-HT2A Rel. Eff.: relative to response of 10 μM 5-HT (defined as 100%). As for the experimental part:
(§2) The functional activity of compounds of formula (I) was assayed using a Fluorimetric Imaging Plate reader (FLIPR). CHO cells expressing the human 5-HT2C or human 5-HT2A receptors were counted and plated into standard 96 well microtitre plates on the day before testing to give a confluent monolayer. The cells were then dye loaded with the calcium sensitive dye, Fluo-3-AM. Unincorporated dye was removed using an automated cell washer to leave a total volume of 100 μL/well of assay buffer (Hanks balanced salt solution containing 20 mM Hepes and 2.5 mM probenecid). The drug (dissolved in 50 μL of the assay buffer) was added at a rate of 70 μL/sec to each well of the FLIPR 96 well plate during fluorescence measurements. The measurements were taken at 1 sec intervals and the maximum fluorescent signal was measured (approx 10–15 secs after drug addition) and compared with the response produced by 10 μM 5-HT (defined as 100%) to which it was expressed as a percentage response (relative efficacy). Dose response curves were constructed using Graphpad Prism (Graph Software Inc.).

Assay [3] addresses T3, 5-HT2C receptor (Homo sapiens, UniProt P28335).
T3 sequence (P28335 33-458): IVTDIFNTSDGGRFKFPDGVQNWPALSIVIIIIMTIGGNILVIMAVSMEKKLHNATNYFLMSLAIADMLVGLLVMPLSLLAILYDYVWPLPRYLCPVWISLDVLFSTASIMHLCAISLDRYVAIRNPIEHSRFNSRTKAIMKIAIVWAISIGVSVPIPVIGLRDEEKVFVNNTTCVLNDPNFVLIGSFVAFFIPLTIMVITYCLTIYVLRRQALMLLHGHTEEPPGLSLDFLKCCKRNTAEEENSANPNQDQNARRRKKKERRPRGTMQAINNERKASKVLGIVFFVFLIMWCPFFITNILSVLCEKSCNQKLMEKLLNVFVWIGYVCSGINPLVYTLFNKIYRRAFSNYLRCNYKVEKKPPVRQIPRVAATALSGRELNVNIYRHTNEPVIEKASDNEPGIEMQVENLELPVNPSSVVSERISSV
Briefly: Functional activity, FLIPR calcium assay, h5-HT2C. Set-up: expressed in transfected cells; host or cells: CHO cells. The note with it: for EC50: CHO cells expressing human 5-HT2C, FLIPR; for h5-HT2C Rel. Eff.: relative to response of 10 μM 5-HT (defined as 100%). In kind it is cell-based. As for the experimental part: as §2

In assay [4] the target is T3, 5-HT2C receptor. Briefly: Binding to 5-HT2C receptor, [3H]-5-HT, Method (a). The note with it: CHO cell line, read-out: Ki (2C). Further details: expressed in transfected cells; host or cells: CHO cell line. As for the experimental part: as §1
Method (a): For the binding to the 5-HT2C receptor the 5-HT2C receptors were radiolabeled with [^3H]-5-HT. The affinity of the compounds for 5-HT2C receptors in a CHO cell line was determined according to the procedure of D. Hoyer, G. Engel and H. O. Kalkman, European J. Pharmacol., 1985, 118, 13–23.

T1 sequence (P28223 whole entry): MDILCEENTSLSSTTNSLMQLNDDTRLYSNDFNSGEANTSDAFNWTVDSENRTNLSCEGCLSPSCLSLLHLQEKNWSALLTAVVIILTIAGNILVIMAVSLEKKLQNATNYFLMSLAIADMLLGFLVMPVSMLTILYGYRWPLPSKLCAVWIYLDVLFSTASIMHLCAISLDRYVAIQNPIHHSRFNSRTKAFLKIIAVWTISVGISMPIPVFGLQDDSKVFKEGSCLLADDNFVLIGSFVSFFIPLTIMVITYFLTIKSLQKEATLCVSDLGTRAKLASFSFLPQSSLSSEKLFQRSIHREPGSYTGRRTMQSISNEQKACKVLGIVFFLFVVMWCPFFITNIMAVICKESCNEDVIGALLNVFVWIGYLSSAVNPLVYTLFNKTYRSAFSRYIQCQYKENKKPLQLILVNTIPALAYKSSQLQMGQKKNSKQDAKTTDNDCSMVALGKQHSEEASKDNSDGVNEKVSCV

For the molecule `C[C@@H]1CNC[C@H]2Cc3cc(Cl)c(C(F)F)nc3N21` [Example 23, (4R,9aR)-7-Chloro-6-difluoromethyl-4-methyl-1,2,3,4,9,9a-hexahydro-2,4a,5-triaza-fluorene], the Ki worked out at 25 nM on 5-HT2A receptor [1], 12 nM on human 5-HT2B receptors and 8 nM at 5-HT2C receptor [4]. Besides, the EC50 was 70 nM on 5-HT2A receptor [2] and 14 nM at 5-HT2C receptor [3]. On 5-HT2A receptor [2], the “h5-HT2A Rel. Eff.” value is reported as 56%. At 5-HT2C receptor [3], the “h5-HT2C Rel. Eff.” value is 97%.

Turning to `CO[C@H](C)c1nc2c(cc1Cl)C[C@@H]1CNC[C@@H](C)N21` [Example 46, (4R,9aR)-7-Chloro-6-(1-(R)-methoxy-ethyl)-4-methyl-1,2,3,4,9,9a-hexahydro-2,4a,5-triaza-fluorene], the inhibition constant Ki was 195 nM on 5-HT2A receptor [1], 84 nM on human 5-HT2B receptors and 9 nM at 5-HT2C receptor [4]. Further, the EC50 at 5-HT2A receptor [2] stood at 273 nM; at 5-HT2C receptor [3], 13 nM. In addition, the “h5-HT2A Rel. Eff.” value on 5-HT2A receptor [2] turned out to be 50%. Besides, the “h5-HT2C Rel. Eff.” value at 5-HT2C receptor [3] was 100%.

As for `Cc1c(F)cnc2c1C[C@@H]1CNC[C@@H](C)N21` [Example 80, (4R,9aR)-7-Fluoro-4,8-dimethyl-1,2,3,4,9,9a-hexahydro-2,4a,5-triaza-fluorene], the Ki was found to be 86 nM on 5-HT2A receptor [1], 87 nM at human 5-HT2B receptors and 6 nM at 5-HT2C receptor [4]. In addition, the EC50 at 5-HT2A receptor [2] turned out to be 178 nM; on 5-HT2C receptor [3] it was 13 nM. The “h5-HT2A Rel. Eff.” value at 5-HT2A receptor [2] is on record as 56%. Also, the “h5-HT2C Rel. Eff.” value at 5-HT2C receptor [3] is 98%.
